Test results: US11753403B2, “EIF4E inhibitors and uses thereof” (PIC Therapeutics, Inc., priority 2020, dated 2023)

biological target: Human eIF4E (aa 28-217) / biotin labeled 4G2 peptide (Homo sapiens (Human), UniProt P06730); assay: Human eIF4E/4G2 binding assay (TR-FRET); conditions: Human eIF4E/4G2 TR-FRET binding assay; head says IC50, legend says EC50
In short: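 Refolded His-tagged human eIF4E (aa 28-217), 82.5 nM working stock, preincubated 4 h at RT with compounds (10-point 2-fold series) in NaPi pH 6.5 buffer with DTT and gamma globulin. Biotin-4G2 peptide then added for 20 min, followed by Eu-streptavidin/APC-anti-His for 20 min; TR-FRET 665/615 nm ratio normalized, IC50 fitted.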

Sequence of Human eIF4E (aa 28-217) / biotin labeled 4G2 peptide (P06730 28-217): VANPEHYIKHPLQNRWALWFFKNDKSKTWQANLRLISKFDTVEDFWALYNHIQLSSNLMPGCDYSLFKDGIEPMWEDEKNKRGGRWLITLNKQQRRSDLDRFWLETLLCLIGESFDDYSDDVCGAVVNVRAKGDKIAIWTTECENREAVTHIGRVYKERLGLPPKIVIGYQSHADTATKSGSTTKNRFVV

IC50 [µM] | SMILES
1 to 10 | O=Cc1sc(N(CCC(=O)O)Cc2ccccc2)nc1-c1ccc(Cl)c(Cl)c1 [I-119, 3-(benzyl(4-(3,4-dichlorophenyl)-5-formylthiazol-2-yl)amino)propanoic acid]
≤ 1 | CC(C)Cc1sc(N(CCC(=O)O)Cc2cccc(Cl)c2)nc1-c1ccc(Cl)c(Cl)c1 [I-107]
≤ 1 | CSc1cccc(CC(CNc2nc(-c3ccc(Cl)c(Cl)c3)c(CC(C)C)s2)C(=O)O)c1 (centres unmarked) [I-171]
1 to 10 | CC(C)Cc1sc(NCC(Cc2cccc(C(N)=O)c2)C(=O)O)nc1-c1ccc(Cl)c(Cl)c1 (centres unmarked) [I-167]
1 to 10 | CC(C)Cc1sc(N(CCC(=O)O)CC2CCCO2)nc1-c1ccc(Cl)c(Cl)c1 (centres unmarked) [I-69]
≤ 1 | CC(C)Cc1sc(Nc2ncc(-c3ccc4ccccc4c3)cc2C(=O)O)nc1-c1ccc(Cl)c(Cl)c1 [I-322, 2-(4-(3,4-dichlorophenyl)-5-isobutylthiazol-2-ylamino)-5-(naphthalen-2-yl)nicotinic acid]
≤ 1 | COc1ccc(-c2nc(Nc3ncc(C(F)(F)F)cc3C(=O)O)sc2CC(C)C)cc1Cl [I-325]
≤ 1 | COCCOc1ccc(-c2nc(Nc3ncc(-c4cccs4)cc3C(=O)O)sc2CC(C)C)cc1Cl [I-327]
≤ 1 | CC(C)Cc1sc(N(CCC(=O)O)Cc2ccccc2)nc1-c1ccc(-c2ccc(F)cc2)cc1 [I-101, 3-(benzyl(4-(4′-fluorobiphenyl-4-yl)-5-isobutylthiazol-2-yl)amino)propanoic acid]
≤ 1 | CC(C)Cc1sc(N(Cc2ccccc2)CC(O)C(=O)O)nc1-c1ccc(Cl)c(Cl)c1 (centres unmarked) [I-190, 3-(benzyl(4-(3,4-dichlorophenyl)-5-isobutylthiazol-2-yl)amino)-2-hydroxypropanoic acid]
1 to 10 | COc1ccc(CC(CNc2nc(-c3ccc(Cl)c(Cl)c3)c(CC(C)C)s2)C(=O)O)cn1 (centres unmarked) [I-163]
> 10 | CC(C)Cc1sc(N(CCC(N)=O)CCC(=O)O)nc1-c1ccc(Cl)c(Cl)c1 [I-61]
1 to 10 | CC(C)Cc1sc(NCC(NC(=O)c2ccccc2)C(=O)O)nc1-c1ccc(Cl)c(Cl)c1 (centres unmarked) [I-136, 2-benzamido-3-(4-(3,4-dichlorophenyl)-5-isobutylthiazol-2-ylamino)propanoic acid]
> 10 | CC(C)c1sc(Nc2ncc(-c3ccccc3)cc2C(=N)N)nc1-c1ccc(Cl)c(Cl)c1 [I-285]
1 to 10 | CC(C)Cc1sc(NCC(Cc2ccnc(O)c2)C(=O)O)nc1-c1ccc(Cl)c(Cl)c1 (centres unmarked) [I-164]
1 to 10 | CC(C)Cc1sc(N(CCC(=O)O)CC2CC2)nc1-c1ccc(Cl)c(Cl)c1 [I-105]
1 to 10 | CC(C)Cc1sc(N(CCC(=O)O)Cc2ccccc2O)nc1-c1ccc(Cl)c(Cl)c1 [I-50]
≤ 1 | CC(C)c1sc(Nc2ncc(-c3ccccc3)cc2C(=O)O)nc1-c1ccc(Cl)c(C(F)(F)F)c1 [I-262, 2-(4-(4-chloro-3-(trifluoromethyl)phenyl)-5-isopropylthiazol-2-ylamino)-5-phenylnicotinic acid]
> 10 | CC(C)Cc1sc(Nc2ccc(N3CCOCC3)c(C(=O)O)c2)nc1-c1ccc(Cl)c(Cl)c1 [I-211]
≤ 1 | O=C(O)C(CNc1nc(-c2ccc(Cl)c(Cl)c2)c(C2CCCC2)s1)Cc1ccccc1 (centres unmarked) [I-177]
≤ 1 | CC(C)c1sc(Nc2ncccc2C(=O)O)nc1-c1ccc(Cl)c(Cl)c1 [I-258]
> 10 | CNC(=O)CCN(Cc1ccccc1)c1nc(-c2ccc(Cl)c(Cl)c2)c(CC(C)C)s1 [I-200, 3-(benzyl(4-(3,4-dichlorophenyl)-5-isobutylthiazol-2-yl)amino)-N-methylpropanamide]
≤ 1 | CC(C)Cc1sc(Nc2ccc(-c3ccccc3)c(C(=O)O)c2)nc1-c1ccc(Cl)c(Cl)c1 [I-216]
> 10 | CC(C)Cc1sc(NCC(C(=O)O)N(C)C)nc1-c1ccc(Cl)c(Cl)c1 (centres unmarked) [I-116, 3-(4-(3,4-dichlorophenyl)-5-isobutylthiazol-2-ylamino)-2-(dimethylamino)propanoic acid]
> 10 | CC(C)Cc1sc(N(CCCCCCN)CCC(=O)O)nc1-c1ccc(Cl)c(Cl)c1 [I-148]
≤ 1 | CC(C)c1sc(Nc2ncc(Cc3ccccc3)cc2C(=O)O)nc1-c1ccc(Cl)c(C(F)(F)F)c1 [I-265]
